The nature of data set [1]: Hygroscopicity and solid-form stability of paclitaxel crystal forms. The data set is classed as physicochemical.

Take `CC(=O)O[C@H]1C(=O)[C@@]2(C)[C@H]([C@H](OC(=O)c3ccccc3)[C@]3(O)C[C@H](OC(=O)[C@H](O)[C@@H](NC(=O)c4ccccc4)c4ccccc4)C(C)=C1C3(C)C)[C@]1(OC(C)=O)CO[C@@H]1C[C@@H]2O` [Form A, Paclitaxel]: the water solubility result is on record as “highly water insoluble”. The “conversion of crystal form” value in data set [1] (Form A: relative humidity greater than about 90% or aqueous suspensions, Form D: relatively high humidity) is “converts (as a function of time, temperature, agitation, etc.) to a thermodynamically more stable form”. In addition, the hygroscopicity result in data set [1] (normal laboratory conditions (RH approximately 50-60%; 20-30° C.)) is given as “substantially non-hygroscopic”.

As to `CC(=O)OC1C(=O)C2(C)C(O)CC3OCC3(OC(C)=O)C2C(OC(=O)c2ccccc2)C2(O)CC(OC(=O)C(O)C(NC(=O)c3ccccc3)c3ccccc3)C(C)=C1C2(C)C.O.O.O` (stereo not shown) [Form B], the water solubility result was “even less water soluble than Form A”.

The values are drawn from patent US6858644B2, “Paclitaxel solvates” (Bristol-Myers Squibb Co., priority 2001, dated 2005).
